Data reported in patent publication US6951651B2, “CTL epitope analogs” (priority 1999, dated 2005).
Like-named read-outs stand apart in the source and are kept apart here. Ends that are not written are not given here.

Experiments:
T cell clone 3-3F4 [1] = experiment: Chromium release assay, peptide-sensitized targets lysed by T cell clone 3-3F4; type: cell-based, human; conditions: for Conc. (nM): concentration of peptide in which specific killing was between 15 and 30 percent: HLA A*0201-restricted EBVLCL targets, 3-3F4 effectors, E:T=5, 10-fold dilutions 500-0.00005 nM; for recognition by T cell clone 3-3F4 (in words): chromium release assay
Method: Nonamer peptides with the substitutions as shown at each position were synthesized as described in Example 1. […] Results of these assays are shown in the right-hand column of Table II, in terms of concentration of peptide (nM) in which specific killing was between 15 and 30 percent. Results presented are the average from at least three independent experiments carried out on different days using different batches of T cell […]. Peptides were tested using 10-fold dilutions, ranging from 500-0.00005 nM.
(§1) To take advantage of the increased immunogenicity of peptides 44 and 46, while maintaining the universal recognition of the native peptide, library-directed changes were made to peptides 44 and 46, substituting back the native amino acids. A series of 21 peptides were constructed based upon the sequence of the tetra-substituted peptides 44 and 46 in each of the carboxyl terminal amidated and free acid forms. The peptides contained single, double, or triple substitutions of amino acids of the native sequence at the positions indicated. These peptides were assayed utilizing a standard chromium release assay with the screening T cell clone, 3-3F4, and a representative T cell clone (VB57) from another individual expressing a different T cell receptor.

T cell clone VB57 = experiment: Chromium release assay, peptide-sensitized targets lysed by T cell clone VB57; type: cell-based, human
Source text: as §1

[2] = tested on: T cell clones from HLA A*0201 individuals seropositive for HCMV; conditions: for T cell clones giving greater specific cytotoxicity at a lower concentration than the native sequence: five T cell clones, EBVLCL targets sensitized at 5.0 or 0.5 nM; for recognition by T cell clones other than 3-3F4: four additional T cell clones from different HCMV-seropositive volunteers, up to 5 nM
Method: Chromium release assays were performed according to the methods of (20). Briefly, target cell lines (antigen presenting cells which present pp65495-503) were labeled for one hour with 200 μCi/ml ^51Cr (ICN™, Costa Mesa, Calif.). HCMV infected targets were prepared as follows. Five-hundred thousand fibroblasts were pretreated with 800 U/10^6 recombinant IFN-γ, (Preprotech™, Rocky Hill, N.J.) to upregulate MHC class I expression and HCMV was added at an m.o.i. of 4. Cells were incubated with virus for two hours at 37° C., in a 5% CO2 incubator. Fresh FBM containing IFN-γ was then added and the cells incubated for an additional 14 hours. Infected fibroblasts were trypsinized, labeled with ^51Cr as described above and used in the assay at an effector-to-target ratio (E/T) of 50 and 10. Epstein-Barr virus transformed B cell lines (EBVLCL) were generated following standard technology using the supernatant of EBV-infected marmoset cells. EBVLCL were grown in medium consisting of RPMI-1640 (Gibco™, Rockville, Md.) supplemented with 10% FBS, 10 mM Hepes Buffer Solution (Irvine Scientific™, Santa Ana, Calif.), penicillin, streptomycin and L-glutamine as described for fibroblast medium. The cells used as targets were prepared by pulsing with […] pp65495-503 peptide, and used at an E/T of 25 and 5. For PS-SCL screening and titration of analog peptides, T2 cells, maintained as described in Diamond et al., Blood 90:1751-1767 (1997), were pulsed with serial peptide dilutions for use as targets for T cell clone effectors at an E/T of 5.
(§2) In the assay, loaded targets and effectors were mixed in culture and incubated for four hours, at which time chromium release was measured. Supernatants were collected on filter frames (Skatron™, Oslo, Norway) and radioactivity determined in a Cobra II gamma counter (Packard™, Meriden, Conn.). For each assay, spontaneous release from the target cells in the absence of effector CTL and maximum possible release after treatment with 2% SDS (Baker Chemicals™, Phillipsburg, N.J.) was determined. Specific cytotoxicity was defined as: 100×[(Re−Rs)/Max−Rs)], where Re=experimental release, and Rs=spontaneous release.
The T cell clones were stimulated in vitro with the native sequence of pp65495-503 (SEQ ID NO:1) as described in Example 2.

T cell clone 3-3F4 [3] = experiment: PS-SCL screen and simultaneous native peptide titration, T2 cells, T cell clone 3-3F4; type: cell-based, human; conditions: E:T 5, read-out: concentration sensitizing 50% maximal lysis of T2 cells by 3-3F4
Method: Chromium release assays were performed according to the methods of (20). Briefly, target cell lines (antigen presenting cells which present pp65495-503) were labeled for one hour with 200 μCi/ml ^51Cr (ICN™, Costa Mesa, Calif.). HCMV infected targets were prepared as follows. Five-hundred thousand fibroblasts were pretreated with 800 U/10^6 recombinant IFN-γ, (Preprotech™, Rocky Hill, N.J.) to upregulate MHC class I expression and HCMV was added at an m.o.i. of 4. Cells were incubated with virus for two hours at 37° C., in a 5% CO2 incubator. Fresh FBM containing IFN-γ was then added and the cells incubated for an additional 14 hours. Infected fibroblasts were trypsinized, labeled with ^51Cr as described above and used in the assay at an effector-to-target ratio (E/T) of 50 and 10. […]
as §2, with “Specific cytotoxicity was defined as: 100×[(Re−Rs)/Max−Rs)], where Re=experimental release, and Rs=spontaneous release.” left out

T cell clone 3-3F4 [4] = experiment: Flow-cytometric HLA A2-Ig dimer binding to T cell clone 3-3F4; parameters: species or system human; conditions: specific fluorescence, peptide-loaded HLA A2-Ig dimers
Method: HLA A2-Ig dimer aliquots were individually loaded with a series of peptides, and incubated with two different T cell clones, 3-3F4 and VB57. The soluble HLA-A2-Ig complexes (HLA dimers) were loaded with peptide according to the methods of Greten et al., Proc. Natl. Acad. Sci. USA 95:7568-7573 (1998). For each peptide analog to be tested, 10 μg of HLA dimers in 10 μl PBS containing 0.02% NaN3 (Baker Chemical™, Phillipsburg, N.J.) was incubated for three days at 4° C. with 660-fold molar excess peptide. Dimers also were loaded with the pp65495-503 native peptide, an irrelevant peptide (pp54 B*0702 epitope), and 2 μl PBS buffer containing 0.02% NaN3, in all experiments to serve as controls. One microgram aliquots of peptide loaded dimers were mixed with 0.2 million of either T cell clone 3-3F4 or VB57 for 75 minutes on ice. Cells were washed in PBS containing 2% FBS and 0.02% NaN3 (WB), and subsequently stained with 0.9 μl/sample of goat anti-mouse IgG1-PE (Caltag™, Burlingame, Calif.). After two additional washings in WB, cells were analyzed by fluorescence-activated cell sorting (FACSCalibur™). Specific fluorescence was calculated as fluorescence ratio between the mean fluorescence of the peptide-loaded diners and the mean fluorescence of the buffer-loaded control diners. Peptides names ending in N are amidated, while those ending in C are free acids. Each peptide-loaded diner complex was tested at least twice with two different T cell clones (3-3F4 and VB57). The fluorescence indices indicated in the Figure are an average of both experiments.

[5] = tested on: peripheral blood CTL of HCMV-seropositive HLA A*0201 donors; type: cell-based, human; conditions: amidated peptides
Method: Sixteen to twenty-four million of the ficoll-separated peripheral blood mononuclear cells were incubated 2-3 hours at 37° C. in a 5% CO2 incubator with 100 μM HCMV PP65495-503 peptide (SEQ ID NO: 1) in a volume of 100 μl of T cell culture medium (IVSTCM). IVSTCM consists of RPMI-1640 supplemented with 20% heat inactivated HAB serum, 10 IU/ml r-IL2 (Chiron™, Emeryville, Calif.); 25 mM Hepes Buffer Solution, 50 U/ml penicillin, 50 μg/ml streptomycin, 2 mM L-glutamine and 0.5 mM sodium pyruvate (Gibco™, Rockville, Md.). […] After the incubation period, the cells, now presenting pp65495-503 were resuspended in 2 ml IVSTCM, and γ-irradiated (2,400 rads) using the Isomedic Model 19 Gammator (Nuclear Canada, Parsippany, N.J.).
During the peptide incorporation procedure, an additional aliquot of 10-20 million cells from the same freshly separated peripheral blood mononuclear cells was depleted of CD4^+, CD16^+ and CD56^+ cells as follows. […] The resulting population was >80% CD8^+ as determined using a FAGSCalbur™ fluorescence activated cell sorter (BD Immunocytomeyry Systems™, Palo Alto, Calif.). […]
Peripheral blood from separate individuals was stimulated with peptides 115, 118, and 193 and subjected to a chromium release assay. […] Lymphocytes from three individuals were used for all four peptides, including SEQ ID NO:1, and one individual was evaluated with 193 peptide and the positive control.

HLA A*0201 = biological target: T1, HLA A*0201 (Homo sapiens, UniProt P04439, D140Y/D185E/D98H/E176V/E277Q/G131W/G231S/I119V/I121R/I166T/I218V/L300P/L318F/N151K/N90K/P208A/P217A/Q86G/Q94H/R138H/R169H/T345S); experiment: T2 assembly assay (MHC binding affinity); conditions: for difference between acid and amide forms in binding to HLA A*0201: T2 assembly assay; for MHC affinity (fluorescence ratio) by T2 assembly assay: T2 cells, 100 μM peptide overnight, mAb BB7.2
T1 construct: endogenous in cells; host or cells: T2 cells (TAP-deficient); β2-microglobulin purchased from Sigma, catalogue number not given
Method: See the methods of Nijman et al., Eur. J. Immunol. 23:1215-1219 (1993).
For each analog to be tested, 250,000 T2 cells were washed twice and resuspended in serum free IMDM and incubated overnight with 100 μM peptide together with 15 μg/ml human β2-microglobulin (Sigma™, Lt. Louis, Mo.) at 37° C. in a 5% CO2 incubator. […] After washing twice with cold buffer, FITC-conjugated rat anti-mouse IgG2a/2b (1:40 dilution; Pharmingen™, San Diego, Calif.) was added and incubated for another 30 minutes at 4° C. The cells were washed twice in cold buffer, and mean fluorescence intensity (MFI) of 10^4 gated cells was measured using a FACSCalibur™.
Fluorescence ratio is defined as mean fluorescence with peptide/mean fluorescence without peptide. Results for the amidated peptides indicate only slight changes in MHC binding.

195C: nonamer YLLPMVATV, SEQ ID NO 58 (YLLPMVATV-OH) [Peptide 195C]
Peptide Concentration (nM), Free Acid, 3-3F4 (T cell clone 3-3F4 [1]; free acid peptide, chromium release, T cell clone 3-3F4): >5 nM | Peptide Concentration (nM), Free Acid, VB57 (T cell clone VB57; free acid peptide): >5 nM

195N: nonamer YLLPMVATV amide, SEQ ID NO 57 (YLLPMVATV-NH2) [Peptide 195N]
Peptide Concentration (nM), Amide, 3-3F4 (T cell clone 3-3F4 [1]; carboxyl terminal amide peptide, chromium release, T cell clone 3-3F4): 0.005 nM | Peptide Concentration (nM), Amide, VB57 (T cell clone VB57; carboxyl terminal amide peptide): 0.5 nM

NLLPMVASV-NH2 [Peptide 118N]
T cell clones giving greater specific cytotoxicity at a lower concentration than the native sequence [2]: three out of five

NLVPMVATV [Peptide A7C, reference compound]
Conc. (nM): concentration of peptide in which specific killing was between 15 and 30 percent (T cell clone 3-3F4 [1]): 0.5 nM | EC50 (T cell clone 3-3F4 [3]): 0.02 nM | HLA-Ig dimer binding to T cell clone 3-3F4 (T cell clone 3-3F4 [4]): bound well

YLLPMVTSV-NH2 [Peptide 46N]
Conc. (nM): concentration of peptide in which specific killing was between 15 and 30 percent (T cell clone 3-3F4 [1]): 0.0005 nM | recognition by T cell clone 3-3F4 (in words) (T cell clone 3-3F4 [1]): better recognized than the native epitope sequence | recognition by T cell clones other than 3-3F4 [2]: No T cell clone other than 3-3F4 recognized | recognition by T cell clones other than 3-3F4 ([2]; listed as 46): not recognized by any of the T cell clones in the cohort | recognition by individuals' peripheral blood T cells after in vitro stimulation with the peptide [5]: only T cells from the individual from whom the PS-SCL screen clone was derived showed any positive response | HLA-Ig dimer binding to T cell clone 3-3F4 (T cell clone 3-3F4 [4]): poor binders | difference between acid and amide forms in binding to HLA A*0201 (HLA A*0201): substantial binding differences | MHC affinity (fluorescence ratio) by T2 assembly assay (HLA A*0201): not dramatically different from the native sequence

YLLPMVVSV-NH2 [Peptide 44N]
Conc. (nM): concentration of peptide in which specific killing was between 15 and 30 percent (T cell clone 3-3F4 [1]): 0.00005 nM | recognition by T cell clone 3-3F4 (in words) (T cell clone 3-3F4 [1]): better recognized than the native epitope sequence | recognition by T cell clones other than 3-3F4 [2]: No T cell clone other than 3-3F4 recognized | recognition by T cell clones other than 3-3F4 ([2]; listed as 44): not recognized by any of the T cell clones in the cohort | recognition by individuals' peripheral blood T cells after in vitro stimulation with the peptide [5]: only T cells from the individual from whom the PS-SCL screen clone was derived showed any positive response | HLA-Ig dimer binding to T cell clone 3-3F4 (T cell clone 3-3F4 [4]): poor binders | difference between acid and amide forms in binding to HLA A*0201 (HLA A*0201): substantial binding differences | MHC affinity (fluorescence ratio) by T2 assembly assay (HLA A*0201): not dramatically different from the native sequence

YLVPMVASV-NH2 [Peptide 115N]
T cell clones giving greater specific cytotoxicity at a lower concentration than the native sequence [2]: two out of five

YLVPMVATV-NH2 [Peptide 193N]
T cell clones giving greater specific cytotoxicity at a lower concentration than the native sequence [2]: two out of five
